Reference: patent EP4050002A1, “ANTI-PROLIFERATIVE AGENTS” (First Health Pharmaceuticals B.V., priority 2021, dated 2022)
pIC50: −log10 of the molar value. Converted amounts (≈) assume the structure as drawn. Counter-ions that a name gives are not always drawn. Like-named read-outs stand apart in the source and are kept apart here. Blank lines part the entries; values can stand above or below the compound they belong to.

Legend:
DDX3X = DDX3X (Homo sapiens, UniProt O00571); test: nanoDSF enzymatic binding (melting temperature shift); parameters: human DDX3X (residues 132-607, UniProtID: 000571, produced by Proteros GmbH); purchased Proteros GmbH; conditions: DDX3X with AMPPNP 100 µM, no compound
Chain of DDX3X (O00571 132-607): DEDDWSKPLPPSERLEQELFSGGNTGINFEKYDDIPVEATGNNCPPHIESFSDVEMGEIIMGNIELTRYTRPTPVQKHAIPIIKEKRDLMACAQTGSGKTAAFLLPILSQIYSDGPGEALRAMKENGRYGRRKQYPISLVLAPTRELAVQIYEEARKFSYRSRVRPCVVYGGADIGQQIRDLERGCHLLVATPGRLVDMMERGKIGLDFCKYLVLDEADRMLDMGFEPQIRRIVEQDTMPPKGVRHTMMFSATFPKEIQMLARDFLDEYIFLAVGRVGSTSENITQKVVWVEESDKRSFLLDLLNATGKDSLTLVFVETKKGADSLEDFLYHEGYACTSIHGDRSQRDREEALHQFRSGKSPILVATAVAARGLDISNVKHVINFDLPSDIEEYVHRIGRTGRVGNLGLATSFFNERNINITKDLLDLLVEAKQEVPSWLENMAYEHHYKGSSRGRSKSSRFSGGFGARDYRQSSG
Text: The binding of compounds to DDX3X have been assessed by nanoDSF analysis (NanoTemper Technologies GmbH, Flößergasse 4, 81369 München, Germany). NanoDSF technology is a Differential Scanning Fluorimetry method which measures the protein stability with high resolution without the need of a dye. In particular it measures the changes of the intrinsic tryptophan fluorescence at 330 and 350 nm and it is used to determine the melting temperature of a protein. In the folded state the residues of tryptophan are buried in the hydrophobic core. During denaturation the residues are more exposed and the fluorescence changes in both intensity and wavelength. In a typical experiment, the protein is mixed with the ligand in the reaction buffer and transferred into a capillary. The fluorescence is monitored over temperature gradient between 20 and 95°C with an increment of 2.5°C per minute. The interaction of the ligand to the folded state of the protein shifts the protein melting temperature (Tm) at higher or lower temperature.
Experimental conditions: the experiments were conducted with the device Prometheus NT.48 (NanoTemper Technologies GmbH), the enzyme used was the human DDX3X (residues 132-607, UniProtID: 000571, produced by Proteros GmbH). The assessed compounds were dissolved in pure DMSO adequate to obtain a concentration of compound of 100µM and DMSO 1% (v:v) in final solution. Reaction buffer for DDX3X was 20 mM HEPES, pH 7.5, 0.5 mM TCEP, 500 mM NaCl, 10% (v:v) Glycerin, with a final reaction volume of 10 µL and a final DMSO concentration of 1% (v:v). The reaction was performed in "High sensitivity capillaries" in the range of 20-95°C with a heating rate of 2.5°C/min, with an incubation time of 60 minutes.
• 1) Add appropriate volume of target enzyme in reaction buffer • 2) Add compound(s) in 100% DMSO (1% final DMSO conc.) • 3) Fill the capillary • 4) Measure fluorescence
The assay development was performed with DDX3X protein alone showing a Tm at 54.6 °C.
Binding of compound 5 was assessed with the NanoDSF technique, evaluating the association of the aforementioned compound with APO DDX3X and in presence of a competitor for the ATP binding site, Adenylyl imidodiphosphate (AMPPNP) to assess competition of compound 5 for the DDX3X ATP binding site. Table 6. Final protein and compound concentrations in the various assay setup:
All the measures were performed in triplicate and the average (Mean Tm) and standard deviation (SD) were calculated with the following equations: [formula] and SD = sqrt((∑((Tm−Mean Tm))^2)/(n−1)) [formula]
A change of 5xSD from the 1% DMSO control mean is considered to be a significant Tm change. Test of DDX3X with 1% DMSO was performed to obtain the reference melting temperature of the protein alone. Compounds are considered as binders if the Tm shifts by >= 5 times the standard deviation of the control (protein in the absence of compound). Table 7. DDX3X melting temperatures (Tm) at various experimental conditions

MDAMB231 cell line = test: Cytotoxicity, cell count method; type: cell-based, human; conditions: MDAMB231, 72 hours of incubation
Description: (§1) The anti-tumor activity of the compounds of the present invention was evaluated as the effect on the proliferation and survival of tumor cells by counting the number of living cells in presence or absence of the compounds ("cell count method"), and as the effect on the viability and metabolic activity of the cells, by using particular substrates that are converted by cellular enzymes into coloured or luminescent products, proportionally with metabolic activity and state of the cell, such as the MTS tetrazolium compound ("MTS method") or luciferin ("ATP-based method") respectively.
(§2) Cells were seeded at 3 to 5 x 10^4 cells/well density depending on cell lines and maintained at 37°C in 5% CO2. After 24 hours cells were treated with ascending concentrations of the investigational compounds and the reference (5-fluoro-Uracyl) in a range from 0 to 100 µM. Compounds were dissolved in DMSO which final concentration in each well was 0.5% v:v. After 72 h of incubation with compounds, the cells were detached with trypsin and re-suspended in 1 ml of complete medium; the cell number was evaluated using a Z2 Coulter Counter ("cell count method") (Attallah and Johnson, A simple highly sensitive methods for the determination of cell viability using an electronic particle analyzer, Coulter counter J. Immunol. Methods. 1981, 41, 155; Leonardi et al., Activated kinase screening identifies the IKBKE oncogene as a positive regulator of autophagy. Autophagy, 2019, 15, 312). Alternatively, after the 72 hours of incubation with compounds, the MTS solution (CellTiter 96® AQueous One Solution Cell Proliferation Assay) is added to each well and absorbance at 490 nm wavelength is read after 2 hours of incubation ("MTS method"). Results in Tables 8-13, 17, 18 were obtained with the cell count method. Results in Tables 14-15 were obtained with the MTS method. Results in Table 16 were obtained with ATP-based method.

A549 Red-FLuc = test: Cytotoxicity, cell count method; type: cell-based; conditions: Homo sapiens, 72 hours of incubation
Description: as §1, §2

[1] = Kinetic solubility (turbidimetry); type: physicochemical; conditions: for solubility at 2 h: 37 °C, kinetic from dmso stock; for Absorbance at 620nm: 2 h
Description: Kinetic solubility was assessed in phosphate buffered saline at pH 7.4 according to the turbidimetry method. Turbidity (precipitation) was measured by absorbance at 620 nm following incubation at 37°C for 2 h. Stock solution of compounds in DMSO were prepared to produce the desired final range of concentrations, then these were added to the buffer to obtain the final test compound concentrations (1 µM, 3 µM, 10 µM, 30 µM, 100 µM), with a final DMSO concentration 1%). Solubility was estimated from the concentration of tested compound that produced a significant increase in absorbance (≥ 0.003 OD at 620 nm) above vehicle control (1% DMSO in water). Miconazole, Reserpine and Propranolol were used as controls.

Compound: Nc1ncnc2c1ncn2[C@@H]1O[C@H](COP(=O)(O)OP(=O)(O)NP(=O)(O)O)[C@@H](O)[C@H]1O [AMPPNP, Adenylyl imidodiphosphate, reference compound]
Tm (DDX3X): 54.7 °C
effect on Tm upon binding (DDX3X): no significant effect on Tm

Compound: CCCCc1noc(-c2ccc(-c3nnc(-c4cccc(Cl)c4F)o3)cc2)n1 [Compound 1, 3-Butyl-5-(4-(5-(3-chloro-2-fluorophenyl)-1,3,4-oxadiazol-2-yl)phenyl)-1,2,4-oxadiazole]
pIC50 (MDAMB231 cell line; Homo sapiens, MDA-MB-231, 72 h): 3.00

Compound: CCCCc1cn(-c2ccc(-c3nnc(-c4ccccc4)o3)cc2)nn1 [Compound 2, 2-(4-(4-butyl-1H-1,2,3-triazol-1-yl)phenyl)-5-phenyl-1,3,4-oxadiazole]
pIC50 (MDAMB231 cell line; Homo sapiens, MDA-MB-231, 72 h): 5.09

Compound: CCCCc1cn(-c2ccc(-c3nnc(-c4ccccc4)o3)cc2)nn1 [Compound 3, 2-(4-(4-butyl-1H-1,2,3-triazol-1-yl)phenyl)-5-phenyl-1,3,4-oxadiazole]
pIC50 (MDAMB231 cell line): 5.22

Compound: CCCCc1cn(-c2ccc(-c3nnc(-c4ccccc4C)o3)cc2)nn1 [Compound 4, 2-(4-(4-butyl-1H-1,2,3-triazol-1-yl)phenyl)-5-(o-tolyl)-1,3,4-oxadiazole]
pIC50 (MDAMB231 cell line; Homo sapiens, MDA-MB-231, 72 h): 4.41

Compound: CCCCc1cn(-c2ccc(-c3nnc(-c4cc(C(C)C)ccc4C)o3)cc2)nn1 [Compound 6, 2-(4-(4-butyl-1H-1,2,3-triazol-1-yl)phenyl)-5-(5-isopropyl-2-methylphenyl)-1,3,4-oxadiazole]
pIC50 (MDAMB231 cell line; Homo sapiens, MDA-MB-231, 72 h): 4.46

Compound: CCCCc1cn(-c2ccc(-c3nnc(-c4cccc5cnccc45)o3)cc2)nn1 [Compound 7, 2-(4-(4-butyl-1H-1,2,3-triazol-1-yl)phenyl)-5-(isoquinolin-5-yl)-1,3,4-oxadiazole]
pIC50 (MDAMB231 cell line; Homo sapiens, MDA-MB-231, 72 h): 3.67

Compound: CCCCc1cn(-c2ccc(-c3nnc(-c4ccccc4OC(F)F)o3)cc2)nn1 [Compound 8, 2-(4-(4-butyl-1H-1,2,3-triazol-1-yl)phenyl)-5-(2-(difluoromethoxy)phenyl)-1,3,4-oxadiazole]
pIC50 (MDAMB231 cell line; Homo sapiens, MDA-MB-231, 72 h): 3.00

Compound: CCCCc1cn(-c2ccc(-c3nnc(-c4ccccc4F)o3)cc2)nn1 [Compound 9, 2-(4-(4-butyl-1H-1,2,3-triazol-1-yl)phenyl)-5-(2-fluorophenyl)-1,3,4-oxadiazole]
pIC50 (MDAMB231 cell line; Homo sapiens, MDA-MB-231, 72 h): 4.37

Compound: CCCCc1cn(-c2ccc(-c3nnc(-c4ccc(C5CCNCC5)cc4)o3)cc2)nn1 [Compound 19, 2-(4-(4-butyl-1H-1,2,3-triazol-1-yl)phenyl)-5-(4-(piperidin-4-yl)phenyl)-1,3,4-oxadiazole hydrochloride]
pIC50 (A549 Red-FLuc): 5.77

Compound: CCCCc1cn(-c2ccc(-c3nnc(-c4cccc(OC5CCCC5)c4)o3)cc2)nn1 [Compound 22, 2-(4-(4-butyl-1H-1,2,3-triazol-1-yl)phenyl)-5-(3-(cyclopentyloxy)phenyl)-1,3,4-oxadiazole]
pIC50 (A549 Red-FLuc): 5.47

solubility at 2 h ([1]; pH 7.4, aqueous buffer): 10 to 30 µM (≈ 4.16 to 12.5 µg/mL)
Absorbance at 620nm ([1]; 1 µM, pH 7.4): 0.037
Absorbance at 620nm ([1]; 3 µM, pH 7.4): 0.037
Absorbance at 620nm ([1]; 10 µM, pH 7.4): 0.037
Absorbance at 620nm ([1]; 30 µM, pH 7.4): 0.044
Absorbance at 620nm ([1]; 100 µM, pH 7.4): 0.053
Compound: Clc1ccc(COC(Cn2ccnc2)c2ccc(Cl)cc2Cl)c(Cl)c1 (stereo not drawn) [Miconazole]

Compound: CC(C)NCC(O)COc1cccc2ccccc12 (stereo not drawn) [Propranolol]
solubility at 2 h ([1]; aqueous buffer, kinetic solubility, PBS pH 7.4, read-out: solubility): > 100 µM
Absorbance at 620nm ([1]; conc. 1 µM, PBS pH 7.4, 37°C): 0.038
Absorbance at 620nm ([1]; conc. 3 µM, PBS pH 7.4, 37°C): 0.037
Absorbance at 620nm ([1]; conc. 10 µM, PBS pH 7.4, 37°C): 0.039
Absorbance at 620nm ([1]; conc. 30 µM, PBS pH 7.4, 37°C): 0.038
Absorbance at 620nm ([1]; conc. 100 µM, PBS pH 7.4, 37°C): 0.037

solubility at 2 h ([1]; pH 7.4, aqueous buffer): 30 to 100 µM (≈ 18.3 to 60.9 µg/mL)
Absorbance at 620nm ([1]; 1 µM, pH 7.4): 0.037
Absorbance at 620nm ([1]; 3 µM, pH 7.4): 0.037
Absorbance at 620nm ([1]; 10 µM, pH 7.4): 0.037
Absorbance at 620nm ([1]; 30 µM, pH 7.4): 0.040
Absorbance at 620nm ([1]; 100 µM, pH 7.4): 0.058
Compound: COC(=O)[C@H]1[C@H]2C[C@@H]3c4[nH]c5cc(OC)ccc5c4CCN3C[C@H]2C[C@@H](OC(=O)c2cc(OC)c(OC)c(OC)c2)[C@@H]1OC [Reserpine]
